{
  "source": "paper PMC10385824",
  "about": "“Antiproliferative and Tubulin-Destabilising Effects of 3-(Prop-1-en-2-yl)azetidin-2-Ones and Related Compounds in MCF-7 and MDA-MB-231 Breast Cancer Cells” (Pharmaceuticals, 2023)",
  "key": {"[1]": {"tested_on": "purified bovine brain tubulin", "test": "Tubulin polymerization assay (light scattering, BK006 kit)", "assay_type": "biochemical", "description": "Tubulin polymerization was monitored using the BK006 kit obtained from Cytoskeleton Inc. (Denver, CO, USA). The values reported represent the average values determined from two independent assays. Purified bovine brain tubulin (>99%, 3 mg/mL) in buffer containing PIPES (80 mM, pH 6.9), EGTA (0.5 mM), MgCl2 (2 mM), GTP (1 mM) and glycerol (10%) was incubated at 37 °C in vehicle (1% DMSO or EtOH (v/v) in dH2O) or with compounds 9h, 9q, 9s, 10h, 10p, 10r, 11h, 11p, 11r, 17f (all at 10 µM concentration); CA-4 (10 μM) was used as control. In this assay, light scattering is related to the concentration of polymerised microtubules produced. Tubulin assembly was monitored turbidimetrically at 340 nm at 37 °C in a Spectramax 340 PC spectrophotometer (Molecular Devices, Sunnyvale, CA, USA)."}, "MCF-7 cells [2]": {"tested_on": "MCF-7 cells", "test": "Lactate dehydrogenase (LDH) cytotoxicity assay", "assay_type": "cell-based, human", "settings": "10 μM, 72 h, LDH release", "description": "The cytotoxic effects of the compounds were determined using the CytoTox 96 non-radioactive cytotoxicity assay (Promega) as previously reported. The MCF-7 cells were seeded in 96-well plates and incubated for 24 h. Cells were treated with test compounds 16, 26 and 30 at 10 μM concentration as described in the cell viability assay above. At 72 hr, 20 μL of ‘lysis solution (10X)’ was added to the control wells to ensure 100% death. The cells were incubated for a further 1 hr. Supernatant (50 μL) was removed from each well and transferred to a 96-well plate. Cytotox 96R Reagent (50 μL) was added to each well, and the plate was retained in darkness at 20 °C for 30 min. 50 μL of ‘stop solution’ was then added to each well, and the absorbance was determined at 490 nm using a Dynatech MR5000 plate reader. The cell death (%) at 10 μM was determined."}, "[3]": {"tested_on": "colchicine-binding site of β-tubulin (Cys239, Cys354) in MCF-7 cells", "test": "Colchicine-binding site assay (EBI crosslinking, Western blot)", "settings": "10 μM, 2 h, then EBI"}, "[4]": {"test": "HPLC stability study in plasma", "assay_type": "in vitro ADME, human", "settings": "human, buffered plasma (plasma:buffer 1:9); Plasma; study over 7 h", "description": "Analytical high-performance liquid chromatography (HPLC) stability studies were performed as follows using Symmetry® column (C18, 5 µm, 4.6 × 150 mm), Waters 2487 Dual Wavelength Absorbance detector, Waters 1525 binary HPLC pump and Waters 717 plus Autosampler (Waters Corporation, Milford, MA, USA) with detection at 254 nm as previously described. Samples were analysed using mobile phase acetonitrile (80%): water (20%), flow rate (1 mL/min) over 10 min. […] First, 30 µL of compound stock solution was diluted with appropriate buffer (1 mL); sample was shaken and injected immediately. Samples were withdrawn and analysed at the following time points: t = 0 min, 5 min, 30 min, 60 min, 90 min, 120 min, 24 h and 48 h. (ii) Thermal stability: Compound stock solution (1 mL) was placed in a glass vial on a heating block for 4 h at 60 °C. The sample was then cooled, diluted (acetonitrile) and analysed. (ii) Oxidising conditions: H2O2 (3%, 0.2 mL) was added to compound stock solution (0.8 mL). The vial was vortexed and retained at 20 °C, and the sample was analysed at 60, 120 180 and 240 min. (iv) Acidic conditions: HCl (0.1 M, 0.2 mL) was added to stock solutions (0.8 mL). The vial was mixed by vortex and retained at 20 °C. A sample was neutralised with NaOH (0.1 M, 0.2 mL) at 60, 120, 180 and 240 min, followed by HPLC analysis. (v) Alkaline conditions: NaOH (0.1 M, 0.2 mL) was added to stock solution (0.8 mL) of the compound in a vial. The vial was mixed by vortex and retained at 20 °C. A sample was neutralised with HCl (0.1 M, 0.2 mL) at 60, 120, 180 and 240 min followed by HPLC analysis. (vi) Photostability study: Compounds (stock solution, 1 mL) were placed in a vial, exposed to UV light for 4 h and then analysed by HPLC as above. Stability studies in plasma: Approval for this study was obtained from the School of Pharmacy and Pharmaceutical Sciences Trinity College Dublin Research Ethics Committee (2020–06-01-MS). Following informed consent, blood was withdrawn from healthy volunteers, and plasma was obtained by centrifugation and kept at −20 °C until further use. […] A sample (250 µL) was then added to the Eppendorf tube containing ZnSO4.7H2O solution (500 µL) (2% w/v ZnSO4 solution in acetonitrile:water, 1:1). The samples were centrifuged (10,000 rpm, 3 min), filtered (0.2 micron filter) and analysed by HPLC as above. Further samples were taken at one-hour intervals."}, "[5]": {"tested_on": "MCF-7 human breast cancer cells", "test": "cells"}, "[6]": {"tested_on": "MDA-MB-231 human breast cancer cells", "test": "Alamar Blue cell viability (antiproliferative) assay", "assay_type": "cell-based", "settings": "72 h, eight concentrations 0.001-50 μM, mean ± SEM, read-out: Antiproliferative Activity IC50"}, "[7]": {"tested_on": "NCI 60 human cancer cell line panel", "test": "NCI 60 cell line screen (SRB), panel values", "settings": "Homo sapiens, 60 cell"}, "[8]": {"test": "HPLC stability study in phosphate buffers", "assay_type": "physicochemical", "settings": "for remaining at 7 h, 14.6 µg/mL: phosphate buffer, study over 7 h"}, "[9]": {"tested_on": "microtubule network in MCF-7 cells", "test": "Immunofluorescence confocal microscopy", "assay_type": "cell-based, human", "settings": "16 h", "description": "CA-4 and β-lactam 9q depolymerise the microtubule network in MCF-7 cells. […] After 16 h, the cells were fixed in 4% paraformaldehyde and stained with mouse monoclonal anti-α-tubulin−FITC antibody (clone DM1A) (green), Alexa Fluor 488 dye, and counterstained with DAPI (blue). The confocal images were obtained by Leica SP8 confocal microscopy with Leica application suite X software. Representative confocal micrograph images of three separate experiments are shown above [scale bar: […]].\nThe effects of β-lactam 9q on MCF-7 cytoskeleton were determined using confocal microscopy as previously described. MCF-7 cells were seeded at 1 × 10^5 cells/mL in glass slides with eight chambers (BD Biosciences, San Jose, CA, USA). […] Following treatment, cells were gently washed in PBS, fixed for 20 min with 4% paraformaldehyde in PBS and permeabilised in 0.5% Triton X-100. The cells were then washed with PBS-T (PBS containing 0.1% Tween), blocked in 5% bovine serum albumin diluted in PBS-T and incubated with mouse monoclonal anti-α-tubulin-FITC antibody (clone DM1A) (Sigma, Milwaulkee, WI, USA) (1:100) for 2 h at 20 °C. The cells were washed again with PBS-T and incubated with Alexa Fluor 488 dye (1:450) for 1 h at 20 °C. Following washes in PBST, the cells were mounted in Ultra Cruz Mounting Media (Santa Cruz Biotechnology, Santa Cruz, CA, USA), which contained 4,6-diamino-2-phenolindol dihydrochloride (DAPI). The immunofluorescence cell images were captured by Leica SP8 confocal microscopy and analysed with Leica application suite X software. Microscopy experiments were performed on three independent occasions, and the images for these experiments were obtained on the same day using identical conditions."}, "MCF-7 cells [10]": {"tested_on": "MCF-7 cells", "test": "Annexin-V/PI apoptosis assay"}},
  "note": "Where two headings read alike, the source gives them in different places.",
  "data": [
    {"smiles": "COc1ccc(/C=C\\c2cc(OC)c(OC)c(OC)c2)cc1O", "note": "[CA-4, Combretastatin A-4, reference compound]", "values": [
      {"measurement": "Fold Reduction in Vmax", "setting": "[1]", "result": 6.3},
      {"measurement": "Vmax", "setting": "[1]; compound at 10 μM, 37 °C, 340 nm", "result": 0.0022, "unit": "mOD/min"},
      {"measurement": "cell death", "setting": "MCF-7 cells [2]", "result": 12, "unit": "%"},
      {"measurement": "formation of β-tubulin-EBI adduct", "setting": "[3]", "result": "formation of the EBI adduct was prevented"},
      {"measurement": "remaining at 7 h, 41.3 µg/mL", "setting": "[4]", "result": 95, "unit": "%"},
      {"measurement": "IC50", "setting": "[5]; MCF7, 72 h, MCF-7, Figure 2, 72 h", "result": 3, "unit": "nM"},
      {"measurement": "IC50", "setting": "[5]; MCF7, 72 h, read-out: Antiproliferative Activity IC50, MCF-7, 72 h, eight concentrations 1–50 μM, mean ± SEM, Table 2", "result": 3.9, "unit": "nM"},
      {"measurement": "IC50", "setting": "[5]; MCF7, 72 h, read-out: Antiproliferative Activity IC50, MCF-7, 72 h, eight concentrations (0.001–50 mM [sic]), mean ± SEM, Table 5", "result": "3.9 ± 0.32", "unit": "nM"},
      {"measurement": "IC50", "setting": "[5]; MCF7, MCF-7", "result": 3.9, "unit": "nM"},
      {"measurement": "IC50", "setting": "[5]; MCF7, read-out: Antiproliferative Activity IC50, MCF-7, eight concentrations 0.001–50 μM, mean ± SEM, Table 3", "result": "3.9 ± 0.32", "unit": "nM"},
      {"measurement": "IC50", "setting": "[5]; MCF7, read-out: Antiproliferative Activity IC50, MCF-7, eight concentrations 0.001–50 μM, mean ± SEM, Table 4", "result": "3.9 ± 0.32", "unit": "nM"},
      {"measurement": "IC50", "setting": "[6]", "result": 43, "unit": "nM"},
      {"measurement": "GI50", "setting": "[7]; read-out: Mean GI50, mean over all NCI 60 cell lines", "result": 99.3, "unit": "nM"},
      {"measurement": "IC (TGI (total growth inhibition))", "setting": "[7]; read-out: Mean TGI", "result": 10300, "unit": "nM"},
      {"measurement": "time stable", "setting": "[8]; pH 4.0, 7.4 and 9.0 and human plasma", "result": "more than 7 h"},
      {"measurement": "remaining at 7 h, 14.6 µg/mL", "setting": "[8]; pH 4.0", "result": 97, "unit": "%"},
      {"measurement": "remaining at 7 h, 14.6 µg/mL", "setting": "[8]; pH 7.4", "result": 89, "unit": "%"},
      {"measurement": "remaining at 7 h, 14.6 µg/mL", "setting": "[8]; pH 9.0", "result": 90, "unit": "%"},
      {"measurement": "effect on microtubule network", "setting": "[9]", "result": "microtubule formation was inhibited and resulted in depolymerised microtubules"},
      {"measurement": "cells undergoing apoptosis (early+late)", "setting": "MCF-7 cells [10]; 50 nM, 72 h", "result": 34.6, "unit": "%"},
      {"measurement": "viability at 0.05 µM", "setting": "MCF-7 cells [10]; Homo sapiens, MCF7, 72 h, read-out: Viable", "result": 61.8, "unit": "%"}
    ]}
  ]
}
